Data taken from patent publication US20230310388A1, “Methods and Compositions for Treating Fungal Infections” (Neoculi Pty Ltd, priority 2020, published 2023).
In brackets after ≈: the same amount, converted by molar mass. Several values for one entry are separate records, joined by “and”; a condition that tells them apart may be missing. Identical values can stand only once.

Tested on: Candida albicans ATCC14053
Test: Broth micro-dilution screen at 16 μg/mL and MIC (Example 9)
Assay type: cell-based
Settings: C. albicans ATCC14053; test range 0.25-64 μg/mL; duplicate
Protocol: The antifungal activity of 201 NCL analogs against Candida albicans ATCC14053 in vitro was investigated. A broth micro-dilution method was used, according to CLSI guidelines as described. NCL analogs were dissolved in DMSO and originally screened at a single concentration of 16 μg/mL.

Row | MIC | Structure (SMILES)
1 | 1 µg/mL (≈ 2.11 µM) | CCCCCC(=NNC(=N)NN=C(CCCCC)c1ccc(Cl)cc1)c1ccc(Cl)cc1 [NCL271]
2 | 4 µg/mL | C/C(=N\NC(=N)N/N=C(\C)c1ccc(C)cc1)c1ccc(C)cc1.Cl [NCL217]
3 | 8 µg/mL and 16 µg/mL | COc1ccc(C=NNC(=N)NN=Cc2ccc(OC)cc2)cc1.Cl [NCL027]
4 | 4 µg/mL and 8 µg/mL | Cl.N=C(NN=Cc1cccc(Cl)c1)NN=Cc1cccc(Cl)c1 [NCL054]
5 | 8 µg/mL and 16 µg/mL | Cc1cccc(C=NNC(=N)NN=Cc2cccc(C)c2)c1.Cl [NCL040]
6 | 1 µg/mL and 2 µg/mL | Cl.N=C(NN=Cc1ccc(OC(F)(F)F)cc1)NN=Cc1ccc(OC(F)(F)F)cc1 [NCL160]
7 | 1 µg/mL | COc1ccc(C=CC=NNC(=N)NN=CC=Cc2ccc(OC)cc2)cc1.Cl [NCL150]
8 | 4 µg/mL and 8 µg/mL | Cl.N=C(NN=Cc1ccc2[nH]ccc2c1)NN=Cc1ccc2[nH]ccc2c1 [NCL146]
9 | 8 µg/mL | CCCCCC(=NNC(=N)N)c1ccc(Cl)cc1.Cl [NCL254]
10 | >64 µg/mL | Nc1nc(NN=Cc2cccc(O)c2O)cc(NN=Cc2cccc(O)c2O)n1.O=Cc1cccc(O)c1O [NCL244]
11 | 4 µg/mL (≈ 13.7 µM) | N=C(N)NN=C(CCC1CCCC1)c1ccc(Cl)cc1 [NCL266]

Same assay, conditions: single concentration 16 μg/mL; Growth or No growth of C. albicans ATCC14053

Row | Structure (SMILES) | Screen at 16 μg/mL
12 | CCCCCC(=NNC(=N)NN=C(CCCCC)c1ccc(Cl)cc1)c1ccc(Cl)cc1 [NCL271] | No growth
13 | N#Cc1ccc(C=NNC(=O)NN=Cc2ccc(C#N)cc2)cc1 [NCL007] | Growth
14 | CC(C)(C)c1ccc(C=NNC(=N)N)cc1 [NCL232] | Growth
15 | CC(C)(C)c1ccc(/C=N/NC(=N)N/N=C/c2ccc(C(C)(C)C)cc2)cc1.Cl [NCL099] | Growth
16 | N=C(N)NN=Cc1ccc(Cl)cc1F [NCL235] | Growth
17 | O=C(NN=Cc1ccc(C(F)(F)F)cc1)NN=Cc1ccc(C(F)(F)F)cc1 [NCL012] | Growth
18 | Cl.N=C(NN=Cc1ccccc1-c1ccccc1)NN=Cc1ccccc1-c1ccccc1 [NCL116] | Growth
19 | C/C(=N\NC(=N)N/N=C(\C)c1ccc(C)cc1)c1ccc(C)cc1.Cl [NCL217] | No growth
20 | O=C(NN=Cc1ccc(Cl)cc1)NN=Cc1ccc(Cl)cc1 [NCL001] | Growth
21 | CCOC(=O)N(/N=C/c1ccc(Cl)cc1)C(=N)N/N=C/c1ccc(Cl)cc1 [NCL224] | Growth
22 | COc1ccc(C=NNC(=N)NN=Cc2ccc(OC)cc2)cc1.Cl [NCL027] | No growth
23 | Cl.N=C(NN=CC(=Cc1ccccc1)c1ccccc1)NN=CC(=Cc1ccccc1)c1ccccc1 [NCL138] | Growth
24 | CC(=NNC(=N)N)c1ccc(C(C)(C)C)cc1 [NCL231] | Growth
25 | Cl.N=C(NN=Cc1cccc(Cl)c1)NN=Cc1cccc(Cl)c1 [NCL054] | No growth
26 | Cc1cccc(C=NNC(=N)NN=Cc2cccc(C)c2)c1.Cl [NCL040] | No growth
27 | Cl.N=C(NN=Cc1ccc(O)c([N+](=O)[O-])c1)NN=Cc1ccc(O)c([N+](=O)[O-])c1 [NCL122] | Growth
28 | CC(=NNC(=N)N)c1ccc(Cl)cc1F [NCL236] | Growth
29 | CC(=NNc1cc(NN=C(C)c2ccc(Cl)cc2)ncn1)c1ccc(Cl)cc1.Cl [NCL185] | Growth
30 | Nc1nc(NN=Cc2cccc(O)c2)cc(NN=Cc2cccc(O)c2)n1 [NCL197] | Growth
31 | COc1cccc(C=NNC(=O)NN=Cc2cccc(OC)c2)c1 [NCL010] | Growth
32 | CCO/C(N)=N/N=C(\C)c1ccc(Cl)cc1 [NCL162] | Growth

Row | Structure (SMILES) | Screen at 16 μg/mL
33 | Cl.N=C(NN=Cc1cccc(O)c1O)NN=Cc1cccc(O)c1O [NCL101] | No growth
34 | Cl.N=C(N)NN=Cc1cccc(C(F)(F)F)c1 [NCL043] | Growth
35 | Nc1nc(NN=Cc2ccc3ccccc3c2)cc(NN=Cc2ccc3ccccc3c2)n1 [NCL264] | Growth
36 | Cl.N=C(NN=Cc1ccc(OC(F)(F)F)cc1)NN=Cc1ccc(OC(F)(F)F)cc1 [NCL160] | No growth
37 | CC(=NNc1nc(N)nc(NN=C(C)c2ccc(Cl)cc2)n1)c1ccc(Cl)cc1 [NCL208] | Growth
38 | Cl.N=C(NN=Cc1cccc(C(=O)O)c1)NN=Cc1cccc(C(=O)O)c1 [NCL098] | Growth
39 | CCCC(=NNC(=N)N)c1ccc(Cl)cc1.Cl [NCL233] | Growth
40 | Nc1nc(NN=Cc2ccc(Cl)nc2)cc(NN=Cc2ccc(Cl)nc2)n1 [NCL238] | Growth
41 | COc1ccc(C=CC=NNC(=N)NN=CC=Cc2ccc(OC)cc2)cc1.Cl [NCL150] | No growth
42 | Cl.N=C(NN=Cc1ccc(Cl)o1)NN=Cc1ccc(Cl)o1 [NCL145] | Growth
43 | Nc1nc(NN=Cc2ccc(-c3ccccc3)cc2)cc(NN=Cc2ccc(-c3ccccc3)cc2)n1 [NCL255] | Growth
44 | CC(=O)Nc1cc(Cl)ccc1C=NNC(=N)NN=Cc1ccc(Cl)cc1NC(C)=O [NCL170] | Growth
45 | Cl.N=C(N)NN=Cc1ccccc1Cl [NCL015] | Growth
46 | Cl.N=C(NN=C(CO)c1ccc(Cl)cc1)NN=C(CO)c1ccc(Cl)cc1 [NCL177] | Growth
47 | Cl.N=C(NN=Cc1ccccc1[N+](=O)[O-])NN=Cc1ccccc1[N+](=O)[O-] [NCL102] | Growth
48 | CN(C)c1ccc(C=NNc2cc(NN=Cc3ccc(N(C)C)cc3)nc(N)n2)cc1 [NCL201] | Growth
49 | Cl.N=C(NN=Cc1ccc2[nH]ccc2c1)NN=Cc1ccc2[nH]ccc2c1 [NCL146] | No growth
50 | Cl.N=C(N)N/N=C/c1ccc(Cl)cc1 [NCL030] | Growth
51 | Nc1nc(NN=Cc2ccccc2)cc(NN=Cc2ccccc2)n1 [NCL199] | Growth
52 | Cl.N=C(N)NN=Cc1ccc(F)cc1 [NCL053] | Growth
53 | Cl.N=C(NN=CC1=C(Cl)c2cc(F)ccc2OC1)NN=CC1=C(Cl)c2cc(F)ccc2OC1 [NCL132] | Growth

Row | Structure (SMILES) | Screen at 16 μg/mL
54 | Cl.N=C(NN=Cc1cccc([N+](=O)[O-])c1)NN=Cc1cccc([N+](=O)[O-])c1 [NCL109] | Growth
55 | CCCCCC(=NNC(=N)N)c1ccc(Cl)cc1.Cl [NCL254] | No growth
56 | Cl.N#Cc1cccc(C=NNC(=N)NN=Cc2cccc(C#N)c2)c1 [NCL026] | Growth
57 | COc1ccc(C=NNC(=O)NN=Cc2ccc(OC)cc2)cc1 [NCL006] | Growth
58 | Cc1ccccc1C=NNC(=O)NN=Cc1ccccc1C [NCL018] | Growth
59 | Cl.N=C(N)N/N=C(\C(=O)O)c1ccccc1 [NCL192] | Growth
60 | Cl.N=C(NN=Cc1ccc2ccccc2c1)NN=Cc1ccc2ccccc2c1 [NCL093] | Growth
61 | Nc1nc(NN=Cc2cccc(O)c2O)cc(NN=Cc2cccc(O)c2O)n1.O=Cc1cccc(O)c1O [NCL244] | Growth
62 | CC(=NNc1cc(NN=C(C)c2ccc(Cl)cc2)ncn1)c1ccc(Cl)cc1 [NCL178] | Growth
63 | CCCCC(=NNC(=N)NN=C(CCCC)c1ccc(Cl)cc1)c1ccc(Cl)cc1.Cl [NCL154] | Growth
64 | N=C(N)NN=C(CCC1CCCC1)c1ccc(Cl)cc1 [NCL266] | No growth
65 | Cc1ccc(C=NNc2nc(N)nc(NN=Cc3ccc(C)cc3)n2)cc1 [NCL206] | Growth
66 | Cl.N=C(NN=Cc1cccc2nsnc12)NN=Cc1cccc2nsnc12 [NCL276] | Growth
67 | CC(=NNC(=N)NN=C(C)c1ccccn1)c1ccccn1.Cl [NCL172] | Growth
68 | CC(=O)Nc1ccc(C=NNC(=N)NN=Cc2ccc(NC(C)=O)cc2)cc1.Cl [NCL119] | Growth
69 | CC(=NNC(=N)NN=C(C)c1ccc(Br)cc1)c1ccc(Br)cc1.Cl [NCL155] | Growth
70 | Cl.N=C(NN=Cc1ccc(SC(F)(F)F)cc1)NN=Cc1ccc(SC(F)(F)F)cc1 [NCL166] | Growth
71 | Cl.N#Cc1cccc(C=NNC(=N)N)c1 [NCL033] | Growth
72 | Nc1nc(NN=Cc2ccc(O)cc2)cc(NN=Cc2ccc(O)cc2)n1 [NCL196] | Growth
